From paper PMC8252455, “Prediction of a clinically effective dose of THY1773, a novel V 1B receptor antagonist, based on preclinical data” (Biopharmaceutics & Drug Disposition, 2021)

Legend:
pituitary V1B receptor = molecular target: T1, pituitary V1B receptor (Homo sapiens, UniProt P47901); assay: Phase 1 RO study using PET; type: in vivo; settings: unpublished data
T1 construct: from tissue; host or cells: pituitary gland of human subjects, in vivo PET
T1 sequence (P47901 1-424): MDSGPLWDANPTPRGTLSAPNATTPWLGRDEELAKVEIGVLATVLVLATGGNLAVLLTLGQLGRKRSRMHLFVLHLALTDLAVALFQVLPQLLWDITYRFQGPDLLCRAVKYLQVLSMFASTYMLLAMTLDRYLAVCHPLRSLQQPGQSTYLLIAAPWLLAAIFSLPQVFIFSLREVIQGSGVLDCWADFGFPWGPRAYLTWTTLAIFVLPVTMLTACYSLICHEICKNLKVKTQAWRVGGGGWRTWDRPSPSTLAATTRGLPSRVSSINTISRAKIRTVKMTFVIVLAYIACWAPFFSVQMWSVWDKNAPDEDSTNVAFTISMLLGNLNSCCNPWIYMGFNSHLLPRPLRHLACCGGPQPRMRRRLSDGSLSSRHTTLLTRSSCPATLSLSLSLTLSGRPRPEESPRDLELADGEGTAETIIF

[1] = Physicochemical properties (Log P, pKa); settings: experimental data
Text: TABLE 2 Human PBPK/RO model input parameters for THY1773 | column: Value

[2] = Blood-to-plasma ratio in human whole blood; type: in vitro ADME; settings: 1 μmol/L
Description: The blood‐to‐plasma ratios of THY1773 were analyzed using pooled fresh whole blood (anticoagulant: EDTA‐2K) and control plasma separated from fresh whole blood in parallel from rats, dogs, and humans. Whole blood and control plasma containing 1 μmol/L THY1773 were incubated at 37°C for 30 min in a shaking water bath. The incubated whole blood was centrifuged at 2000 × g for 10 min at 4°C to obtain plasma. An aliquot of each plasma sample (i.e., isolated plasma from incubated whole blood and control plasma) was mixed with 8 volumes of acetonitrile/methanol (9:1, vol/vol) containing the IS. After centrifugation at 3974 × g for 10 min at 4°C, the supernatant was subjected to liquid chromatography/tandem mass spectrometry (LC‐MS/MS) analysis. The blood‐to‐plasma ratio was calculated by dividing the […].

[3] = PK and urinary excretion in rats; type: in vivo, rat
Description: The PK and urinary excretion of THY1773 in rats (1 mg/kg) and dogs (0.5 mg/kg) under fasted conditions were evaluated following intravenous or oral administration of THY1773. THY1773 was dissolved in 10% (vol/vol) hydroxypropyl‐β‐cyclodextrin at pH 4 for intravenous administration, or suspended in 0.5% (wt/vol) methyl cellulose 400 for oral administration. After a single intravenous or oral administration of THY1773, blood samples were collected into tubes containing EDTA‐2K as an anticoagulant. The scheduled time points were predose (dog only), 5 (intravenous only), 15, 30 min, 1, 2, 4, 8, 12, and 24 h postdose. Plasma was separated by centrifugation. Urine samples were collected into bottles set on ice for 24 h after intravenous administration of THY1773. Plasma and urine samples were treated with 4 volumes of acetonitrile/methanol (9:1, vol/vol) containing the IS. After centrifugation (3639 × g, 4°C, 10 min) to remove precipitated proteins, the supernatant was subjected to LC‐MS/MS analysis. The distributions of THY1773 into brain and pituitary gland in rats were investigated after a single oral administration of THY1773 (1 mg/kg). Blood was collected from the tail vein into tubes containing EDTA‐2K at 1 h after a single oral administration of THY1773, and the plasma was separated by centrifugation (12000 × g, 4°C, 3 min). After blood collection, the brain and pituitary gland were excised followed by homogenization with approximately 4 volumes of distilled water. Plasma, brain, and pituitary samples were treated with 4 volumes of acetonitrile/methanol (9:1, vol/vol) containing the IS and centrifuged (3639 × g, 4°C, 10 min). Aliquots of the supernatant were subjected to LC‐MS/MS analysis.
The plasma concentration–time profiles of THY1773 were analyzed by a non‐compartmental analysis with PK analysis software Phoenix WinNonlin® (version 6.1; Certara), and the PK parameters were calculated. The fraction excreted in urine was calculated by dividing the amount of THY1773 excreted in urine by the administered dose.

[4] = male rats, iv 1 mg/kg, mean (%CV), n=3
[5] = male rats, po 1 mg/kg, mean (%CV), n=3

CC(C)NC(=O)Cn1c(-c2cccc(Cl)c2)nn(-c2ccc(CCN3CCOCC3)cc2)c1=O [THY1773]
V1B RO at steady state (PET) (pituitary V1B receptor; 10 mg): 55.3%
V1B RO at steady state (PET) (pituitary V1B receptor; 50 mg): 75.1%
In vivo EC50 for V1B RO compared with in vitro Ki for human V1B receptor (pituitary V1B receptor; human PET): comparable (within twofold)
Log P [1]: 3.17
pKa ([1]; monoprotic base): 6.85
Blood-to-plasma ratio [2]: Theoretical limit (experimental data: 0.54)
AUC0‐∞ [3, 4]: 762 (14.9) h·ng/ml
CLtotal [3, 4]: 1330 (13.7) ml/h/kg
Vdss [3, 4]: 2220 (5.7) ml/kg
t1/2 [3, 4]: 1.38 (2.3) h
F (oral bioavailability) ([3]; male rats, po 1 mg/kg, 1 mg/kg): 46.6%
AUC0‐∞ [3, 5]: 355 (13.5) h·ng/ml
Cmax [3, 5]: 136 (11.8) ng/ml
t1/2 [3, 5]: 1.45 (5.5) h
tmax [3, 5]: 0.833 (34.6) h
CLrenal compared with fu × GFR ([3]; rats): comparable to fu × GFR
CLtotal as share of hepatic blood flow ([3]; rats, single intravenous administration): approximately 30 % of hepatic blood flow
Urinary excretion of unchanged drug ([3]; rats, within 24 h post intravenous dosing): 4.6%
